Like-named read-outs stand apart in the source and are kept apart here. Starred links: 1 amine or outer side, 2 acyl side, 3 side chain; linkers in the order of their positions; H or OH if unused. Positions of bridges follow the written chain, without caps; N, C: chain ends. Non-standard residues stand in square brackets, D forms with d. Residues, ends and D or L forms follow the SMILES beside them. *: point of attachment. Phe(4-CF3) = N[C@@H](Cc1ccc(C(F)(F)F)cc1)C(=O)O; Phe(3-Me) = Cc1cccc(C[C@H](N)C(=O)O)c1; 2Nal = N[C@@H](Cc1ccc2ccccc2c1)C(=O)O; βAsp = O=C(O)[C@H](CC(=O)[*:2])N[*:1]; Gly(cPr) = N[C@H](C(=O)O)C1CC1; NMeL = CN[C@@H](CC(C)C)C(=O)O; Ahp(2) = CCCCC[C@H](N)C(=O)O; NMeNle = CCCC[C@H](NC)C(=O)O; Tle = CC(C)(C)[C@H](N)C(=O)O; NHexGly = CCCCCCNCC(=O)O; Nle = CCCC[C@H](N)C(=O)O; Orn = NCCC[C@H](N)C(=O)O; Aun = NCCCCCCCCCCC(=O)O; Abu = CC[C@H](N)C(=O)O; AEEA = NCCOCCOCC(=O)O; Allyl = C=CC*
Molecular target: T1, mouse VISTA (mVISTA) (Mus musculus, UniProt Q9D659)
T1 construct: expressed in transfected cells; host or cells: Human embryonic kidney 293T cells
T1 sequence (Q9D659 33-308): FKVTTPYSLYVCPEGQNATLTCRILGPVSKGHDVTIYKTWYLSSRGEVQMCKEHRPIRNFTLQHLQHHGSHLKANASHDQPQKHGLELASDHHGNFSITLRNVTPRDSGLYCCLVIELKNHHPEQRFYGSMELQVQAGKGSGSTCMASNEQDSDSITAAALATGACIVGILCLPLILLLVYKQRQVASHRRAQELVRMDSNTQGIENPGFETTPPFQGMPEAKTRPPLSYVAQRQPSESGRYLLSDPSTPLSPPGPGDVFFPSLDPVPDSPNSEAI
Experiment: Cell-Based Binding High-Content Assay For mVISTA (HC CBA mVISTA)
Outline: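 mVISTA-293T, 4,000 cells/well; cpd ± washout step; biotin-peptide 2 nM final, 30 min RT; SA-Alexa 647 30 min; formaldehyde/Hoechst fix; HCS imaging; 4PL IC50.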

[1] = 293T cells expressing mouse VISTA, competition with biotinylated peptide (2 nM), read-out: HC CBA mVISTA IC50

For `CCCCCCN1CC(=O)N[C@@H](Cc2ccc(O)cc2)C(=O)N[C@@H](CC)C(=O)N[C@@H](CC(N)=O)C(=O)N[C@@H](CCCN)C(=O)N(C)[C@@H](CCCC)C(=O)N[C@@H](CCCCC)C(=O)N2CCC[C@H]2C(=O)N[C@@H](C(C)(C)C)C(=O)N[C@@H](CO)C(=O)N[C@H](C(=O)N[C@@H](CC(=O)NCCOCCOCC(=O)N[C@@H](CC(=O)O)C(=O)NCCOCCOCC(=O)NCCCCCCCCCCC(=O)O)C(=O)O)CSCC(=O)N[C@@H](Cc2ccccc2)C(=O)N[C@@H](Cc2ccc(O)cc2)C(=O)N[C@@H](CC(=O)O)C1=O` [compound 2060] ({CH2CO}-FYD[NHexGly]Y[Abu]N[Orn][NMeNle][Ahp(2)]P[Tle]SC[βAsp][AEEA]D[AEEA][Aun]-OH; thioether N-14), the IC50 (cell-based binding high-content assay, mVISTA, read-out: HC CBA miPr ISTA IC50) was 24.7 nM.

`CCCCCCN1CC(=O)N[C@@H](Cc2ccc(O)cc2)C(=O)N[C@@H](CC(C)C)C(=O)NCC(=O)N[C@@H](CCCNC(=N)N)C(=O)N[C@@H](Cc2ccc(O)cc2)C(=O)N[C@@H](CCCCC)C(=O)N2CCC[C@H]2C(=O)N[C@@H](C(C)C)C(=O)N[C@@H](CC(=O)O)C(=O)N[C@H](C(=O)NCC(N)=O)CSCC(=O)N[C@@H](Cc2ccc3ccccc3c2)C(=O)N[C@@H](Cc2ccc(O)cc2)C(=O)N[C@@H](CC(=O)O)C1=O` [Ex 1298] ({CH2CO}-[2Nal]YD[NHexGly]YLGRY[Ahp(2)]PVDCG-NH2; thioether N-14) was tested, and the IC50 (cell-based binding high-content assay, mVISTA, the 16th table, read-out: HC CBA mVISTA IC50) was 36.1 nM.

Molecule `CCCCCCN1CC(=O)N[C@@H](Cc2ccc(O)cc2)C(=O)N[C@@H](CCCCC)C(=O)N[C@@H](CC(N)=O)C(=O)N[C@@H](CCCNC(=N)N)C(=O)N(C)[C@@H](CCCC)C(=O)N[C@@H](CCCCC)C(=O)N2CCC[C@H]2C(=O)N[C@@H](C(C)C)C(=O)N[C@@H](CO)C(=O)N[C@H](C(=O)NCC(=O)O)CSCC(=O)N[C@@H](Cc2ccccc2)C(=O)N[C@@H](Cc2c[nH]c3ccccc23)C(=O)N[C@@H](CC(=O)O)C1=O` [Example 1384] ({CH2CO}-FWD[NHexGly]Y[Ahp(2)]NR[NMeNle][Ahp(2)]PVSCG-OH; thioether N-14) has an IC50 (read-out: HC CBA mVISTA IC50) of 10.9 nM.

Work on `CCCCCCN1CC(=O)N[C@@H](Cc2ccc(O)cc2)C(=O)N[C@@H](CCCCC)C(=O)N[C@@H](CC(=O)O)C(=O)N[C@@H](CCCNC(=N)N)C(=O)N[C@@H](CC(C)C)C(=O)N[C@@H](CCCCC)C(=O)N2CCC[C@H]2C(=O)N[C@@H](C(C)C)C(=O)N[C@@H](CC(=O)O)C(=O)N[C@H](C(=O)N[C@H](CC(=O)O)C(N)=O)CSCC(=O)N[C@@H](Cc2ccccc2)C(=O)N[C@@H](Cc2ccc(O)cc2)C(=O)N[C@@H](CC(=O)O)C1=O` [Example 1002] ({CH2CO}-FYD[NHexGly]Y[Ahp(2)]DRL[Ahp(2)]PVDC[dD]-NH2; thioether N-14) yielded an IC50 [1] of 14.9 nM.

`C=CCOc1ccc(C[C@@H]2NC(=O)CSC[C@@H](C(=O)NCC(N)=O)NC(=O)[C@H](CO)NC(=O)[C@H](C(C)(C)C)NC(=O)[C@@H]3CCCN3C(=O)[C@H](CCCCC)NC(=O)[C@H](CCCC)N(C)C(=O)[C@H](CCCNC(=N)N)NC(=O)[C@H](CC(N)=O)NC(=O)[C@H](CC(C)C)NC(=O)[C@H](Cc3ccc(O)cc3)NC(=O)CN(CCCCCC)C(=O)[C@H](CC(=O)O)NC(=O)[C@H](Cc3ccc(O)cc3)NC2=O)cc1` [compound 1223] ({CH2CO}-Y(Allyl)YD[NHexGly]YLNR[NMeNle][Ahp(2)]P[Tle]SCG-NH2; thioether N-14) showed an IC50 (read-out: HC CBA mVISTA IC50) of 18.1 nM.

With `CCCCCCN1CC(=O)N[C@@H](Cc2ccc(O)cc2)C(=O)N[C@@H](CCCC)C(=O)N[C@@H](CC(N)=O)C(=O)N[C@@H](CCCNC(=N)N)C(=O)N(C)[C@@H](CCCC)C(=O)N[C@@H](CCCCC)C(=O)N2CCC[C@H]2C(=O)N[C@@H](C(C)C)C(=O)N[C@@H](CC(N)=O)C(=O)N[C@H](C(=O)NCC(=O)O)CSCC(=O)N[C@@H](Cc2ccccc2)C(=O)N[C@@H](Cc2c[nH]c3ccccc23)C(=O)N[C@@H](CC(=O)O)C1=O` [Example 1381] ({CH2CO}-FWD[NHexGly]Y[Nle]NR[NMeNle][Ahp(2)]PVNCG-OH; thioether N-14) the IC50 (read-out: HC CBA mVISTA IC50) was 20.3 nM.

`CCCCCCN1CC(=O)N[C@@H](Cc2ccc(O)cc2)C(=O)N[C@@H](CCCC)C(=O)N[C@@H](CC(N)=O)C(=O)N[C@@H](CCCNC(=N)N)C(=O)N[C@@H](CC(C)C)C(=O)N[C@@H](CCCCC)C(=O)N2CCC[C@H]2C(=O)N[C@@H](C(C)C)C(=O)N[C@@H](CO)C(=O)N[C@H](C(=O)NCC(N)=O)CSCC(=O)N[C@@H](Cc2ccccc2)C(=O)N[C@@H](Cc2ccc(O)cc2)C(=O)N[C@@H](CC(=O)O)C1=O` [Example 1033] ({CH2CO}-FYD[NHexGly]Y[Nle]NRL[Ahp(2)]PVSCG-NH2; thioether N-14) showed an IC50 [1] of 16.7 nM.

`CCCCCCN1CC(=O)N[C@@H](Cc2ccc(O)cc2)C(=O)N[C@@H](CCCC)C(=O)N[C@@H](CC(N)=O)C(=O)N[C@@H](CCCNC(=N)N)C(=O)N(C)[C@@H](CC(C)C)C(=O)N[C@@H](CCCCC)C(=O)N2CCC[C@H]2C(=O)N[C@@H](C(C)C)C(=O)N[C@@H](CC(=O)O)C(=O)N[C@H](C(=O)N[C@@H](CO)C(=O)O)CSCC(=O)N[C@@H](Cc2ccccc2)C(=O)N[C@@H](Cc2c[nH]c3ccccc23)C(=O)N[C@@H](CC(=O)O)C1=O` [Example 1370] ({CH2CO}-FWD[NHexGly]Y[Nle]NR[NMeL][Ahp(2)]PVDCS-OH; thioether N-14) showed an IC50 (read-out: HC CBA mVISTA IC50) of 18.7 nM.

In the case of `CCCCCCN1CC(=O)N[C@@H](Cc2ccc(O)cc2)C(=O)N[C@@H](CCCC)C(=O)N[C@@H](CC(N)=O)C(=O)N[C@@H](CCCNC(=N)N)C(=O)N[C@@H](CC(C)C)C(=O)N[C@@H](C2CC2)C(=O)N2CCC[C@H]2C(=O)N[C@@H](C(C)C)C(=O)N[C@@H](CC(=O)O)C(=O)N[C@H](C(=O)NCC(=O)O)CSCC(=O)N[C@@H](Cc2ccc3ccccc3c2)C(=O)N[C@@H](Cc2c[nH]c3ccccc23)C(=O)N[C@@H](CC(=O)O)C1=O` [compound 1182] ({CH2CO}-[2Nal]WD[NHexGly]Y[Nle]NRL[Gly(cPr)]PVDCG-OH; thioether N-14), the IC50 (read-out: HC CBA mVISTA IC50) is reported as 23.6 nM.

Work on `CCCCCCN1CC(=O)N[C@@H](Cc2ccc(O)cc2)C(=O)N[C@@H](CCCC)C(=O)N[C@@H](CC(N)=O)C(=O)N[C@@H](CCCNC(=N)N)C(=O)N[C@@H](CC(C)C)C(=O)N[C@@H](CCCCC)C(=O)N2CCC[C@H]2C(=O)N[C@@H](C(C)C)C(=O)N[C@@H](CC(=O)O)C(=O)N[C@H](C(=O)NCC(=O)O)CSCC(=O)N[C@@H](Cc2ccc(C(F)(F)F)cc2)C(=O)N[C@@H](Cc2c[nH]c3ccccc23)C(=O)N[C@@H](CC(=O)O)C1=O` [compound 1459] ({CH2CO}-[Phe(4-CF3)]WD[NHexGly]Y[Nle]NRL[Ahp(2)]PVDCG-OH; thioether N-14) yielded an IC50 (the 20th table, scaffold drawing 23, read-out: HC CBA mVISTA IC50) of 23.4 nM.

`CCCCCCN1CC(=O)N[C@@H](Cc2ccc(O)cc2)C(=O)N[C@@H](CC(C)C)C(=O)N[C@@H](CC(N)=O)C(=O)N[C@@H](CCCNC(=N)N)C(=O)N(C)[C@@H](CCCC)C(=O)N[C@@H](CCCCC)C(=O)N2CCC[C@H]2C(=O)N[C@@H](C(C)(C)C)C(=O)N[C@@H](C(C)C)C(=O)N[C@H](C(=O)N[C@@H](CC(=O)NCCOCCOCC(=O)N[C@@H](CC(=O)O)C(=O)NCCOCCOCC(=O)NCCCCCCCCCCC(=O)O)C(=O)O)CSCC(=O)N[C@@H](Cc2ccccc2)C(=O)N[C@@H](Cc2cccc(C)c2)C(=O)N[C@@H](CC(=O)O)C1=O` [compound 2073] ({CH2CO}-F[Phe(3-Me)]D[NHexGly]YLNR[NMeNle][Ahp(2)]P[Tle]VC[βAsp][AEEA]D[AEEA][Aun]-OH; thioether N-14) showed an IC50 (cell-based binding high-content assay, mVISTA, read-out: HC CBA miPrISTA IC50) of 33.4 nM.

From patent US20240218022A1, “ANTI-VISTA MACROCYCLIC PEPTIDES AND COMPOSITIONS” (BRISTOL-MYERS SQUIBB COMPANY, priority 2022, published 2024)
